From US5989846A, “Assays to identify inducers of plant defense resistance” (Rutgers, The State University of New Jersey, priority 1995, dated 1999)

How the values were obtained:
[1] = test system: salicylic acid binding protein; assay: Effect of antioxidants on salicylic acid binding activity; set-up: species or system tobacco; conditions: 20 mM citrate, 5 mM MgCl, 10% glycerol pH 6.5, FIG. 5
Protocol: This was measured in buffers containing 20 mM citrate, 5 mM MgCl and 10% glycerol pH 6.5 in addition to the indicated concentrations of antioxidant.
A key element during the characterization and the purification process is a simple, inexpensive, sensitive and reliable method for determining the salicylic acid binding activity. For this purpose, spin-column exclusion chromatography was used to separate the bound [^14 C] salicylic acid (excluded) from the bulk free salicylic acid (included). Specifically, a 1.5 ml Eppendorf tube was punctured at the tip with a 20-gauge needle and a small amount of glass wool was added to cover the small hole. The tube was then filled with Bio-Gel P-6DG desalting gel (exclusion limit 6 KDa; purchased from Bio-Rad, Melville, N.Y.) which have been swollen in water. An alternative gel is Sephadex G-25 fine (from Pharmacia, Piscataway, N.J.). Excess liquid in the gel was removed and centrifuged for 5 minutes at full speed in a Dynamic centrifuge (Becton Dickinson). The process was then repeated several times until the gel filled the tube. After incubation of an aliquot of the extract or column fractions for 2 hr at 4° C. with 5 μM-20 μM [^14 C salicylic acid] (specifically radioactivity 55 Ci/mol; purchased from New England Nuclear), 150 μl of proteins binding sample was loaded onto the tube column, which was then rapidly centrifuged for 2 minutes at full speed and the solution of proteins and bound [^14 C-salicylic acid] that was excluded from the gel was collected into another tube that had been placed under the tube column during the centrifugation. One hundred microliters of this solution was then used to determine the amount of bound salicylic acid. […] For example, to determine the inhibitory effect of various salicylic acid analogues on salicylic acid binding activity, these individual analogues were included in the binding mixture containing both the protein and [^14 C] salicylic acid during the 2 hr incubation, and resulting binding activity was determined in comparison to the activity in the absence of these analogues. […]

catalase = assay: In vivo catalase activity in tobacco suspension cells (oxygen electrode); type: cell-based
Protocol: This was determined by adding increasing concentrations of SA or INA to tobacco suspension cells (derived from cultivar Xanthi nc), as described below. The tobacco suspension cell culture was grown in the dark in MS medium at approximately 22° C. with agitation (160 rpm). Cells were maintained by diluting 10-fold every 5 days. For experimentation, 5 ml of suspension cells obtained 3 days after dilution was transferred to a 25 ml Erlenmeyer flask and agitated (100 rpm) at room temperature in the absence or presence of SA or INA which had been adjusted to pH 5.8. After 1 hr, 1 ml of the treated cell suspension was transferred to 7 ml of fresh MS medium containing SA or INA in a 10 ml beaker (density was approximately 6 mg cells per ml). Cells were maintained in suspension with a magnetic stir bar. In vivo catalase activity was determined by measuring, with an oxygen electrode, the rate of H2 O2 -dependent O2 production immediately after addition of H2 O2 to 10 mM final concentration.

SABP/catalase = assay: Competition with 14C-labeled SA for SABP/catalase in crude leaf extracts; type: binding, tobacco; conditions: in vitro
ascorbate peroxidase = assay: Ascorbate peroxidase activity in tobacco leaf extracts; type: biochemical, Nicotiana tabacum cv. Xanthi nc; conditions: for % Inhibition of ascorbate peroxidase: 200 μM compound, corrected for quenching of auto oxidation
Protocol: […] Two grams of leaves from 6-8 week old tobacco plants (Nicotiana tabacum cv. Xanthi nc) grown at 22° C. in a 14 hr light cycle were homogenized under liquid nitrogen using a pestle and mortar.
To obtain ascorbate peroxidase-containing extracts, the soluble proteins were extracted by grinding the powder in 10 ml of 100 mM potassium phosphate, pH 7, containing […] ascorbate and 1% (weight/volume) polyvinylpyrrolidone, with a small amount of quartz sand. The homogenate was centrifuged at 14,000 g for 5 min. […] The pellet resulting from centrifugation (14,000 g, 15 min.) was resuspended in extraction buffer (100 mM potassium phosphate, pH7, containing 0.25 mM ascorbate and 1% (weight/volume) polyvinylpyrrolidone) and desalted on a PD-10 column (Pharmacia) equilibrated with 50 mM potassium phosphate, pH 7, containing 100 μM ascorbate. The extract was used immediately. […] The amount of protein per assay was 30-50 μg. Oxidation of ascorbate was followed by the decrease in the absorbance at 290 nm.
The values illustrated in FIG. 17 are the mean values for three replicated assays.

PR1 genes = assay: PR-1 protein/gene expression in tobacco leaves (immunoblot); type: in vivo; conditions: for Induction of PR-1 protein synthesis / PR-1 gene induction (in words): N.t. cv. Xanthi nc
Protocol: The level of PR1 protein in tobacco leaves was analyzed by immunoblot analysis to establish biological activity. Three leaf discs (1 cm in diameter) were homogenized in 200 microliters of buffer containing 50 mM Tris (pH 8.0), 1 mM EDTA, 12 mM beta-mercaptoethanol and 10 mg/ml phenylmethylsulfonyl fluoride. The homogenate was centrifuged at full speed for 10 minutes in an Eppendorf microcentrifuge. The supernatant was fractionated with 15% polyacrylamide gel under denatured conditions. Protein blotting was done with a monoclonal antibody specific to PR1 protein and protein-antibody complexes were detected with an ECL kit from Amersham.
PR gene expression is both induced by SA and associated with the development of SAR. Therefore, it was of interest to test whether SA's mechanism of action for the induction of PR genes was via its inhibition of catalases which leads to enhanced H2 O2 levels. To address this question, H2 O2 abundance was artificially raised in tobacco leaves by treating with H2 O2 or compounds which either inhibit the catalase activity, like SA itself, or promote generation of H2 O2 in vivo. […]

TMV = type: in vivo, tobacco mosaic virus; conditions: for Enhanced resistance to TMV infection (reduction in lesion size): N.t. cv. Xanthi nc plants, compared to water-treated control plants
Protocol: The SA/SAG valves are given in micrograms per gram fresh weight of leaf tissue and represent averages of values from 3-6 treated plants at 6 days past injection. […] For determination of reduction in lesion size, longitudinal halves of 2 leaves on 3-6 plants were injection with chemicals, and six days later the entire leaf was infected with TMV. Twenty lesions were measured on each half of the leaf seven days post infection; the values given represent the average percent reduction in lesion diameter in the treated leaf half compared to the untreated half.

guaiacol peroxidases = assay: Guaiacol peroxidase activity in tobacco leaf extracts; type: biochemical, Nicotiana tabacum cv. Xanthi nc
Protocol: Inhibition of peroxidase by SA and INA was determined by measuring the enzyme activities in extracts prepared from tobacco leaves in the absence or presence of 100 μM or 1000 μM SA or INA. Two grams of leaves from 6-8 week old tobacco plants (Nicotiana tabacum cv. Xanthi nc) grown at 22° C. in a 14 hr light cycle were homogenized under liquid nitrogen using a pestle and mortar.
Total guaiacol peroxidase activity was extracted with 100 mM potassium phosphate, pH 6.2, containing 1% (weight/volume) polyvinylpyrrolidone. In order to also extract the ionically bound cell wall isozymes, the extraction buffer was supplemented with 600 mM KCl. Extraction and centrifugation steps were as described for ascorbate peroxidase. After removal of cell debris and ammonium sulfate precipitation (85%), the extract was desalted against 50 mM potassium phosphate, pH 6, containing 25% glycerol. The extract could be stored at -20° C. without significant loss of peroxidase activity.
(§1) Guaiacol peroxidase activity was determined by the method of Chance and Maehly (Methods Enzymol. 2: 764 (1955)) using guaiacol as the substrate.
(§2) The formation of tetraguaiacol was monitored at 470 nm. The reaction mixture contained 0.25% guaiacol and 100 mM hydrogen peroxide in 20 mM potassium phosphate, pH 6.2. The amount of protein per 1 ml assay was […]. The reaction was measured for five minutes. The assay for horseradish peroxidase was identical, except that only 0.2-0.5 μg protein was used.

horseradish peroxidase = target: T1, horseradish peroxidase (Armoracia rusticana, UniProt P00433); assay: Horseradish peroxidase activity; type: biochemical
T1 construct: purchased Sigma
T1 sequence (P00433 31-353): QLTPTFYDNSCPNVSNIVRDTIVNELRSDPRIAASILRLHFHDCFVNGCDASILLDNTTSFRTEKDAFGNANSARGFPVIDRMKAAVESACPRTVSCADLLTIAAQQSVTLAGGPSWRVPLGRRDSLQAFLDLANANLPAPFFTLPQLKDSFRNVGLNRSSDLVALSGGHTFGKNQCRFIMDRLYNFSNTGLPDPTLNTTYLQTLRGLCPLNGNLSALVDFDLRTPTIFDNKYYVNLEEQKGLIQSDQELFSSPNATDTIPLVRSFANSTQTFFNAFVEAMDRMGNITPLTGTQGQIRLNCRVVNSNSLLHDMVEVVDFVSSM
Protocol: Horseradish peroxidase (1 mg; obtained from Sigma) was dissolved in 1.5 ml 200 mM potassium phosphate, pH 6.2, containing 150 mM NaCl. Following a 15 minute incubation at room temperature, the enzyme solution was centrifuged (10,000 g, 10 minutes). After buffer exchange (PD-10, equilibrated with 25 mM potassium phosphate, pH 6.2), the protein concentration was adjusted to 0.5 mg/ml.
as §1, §2

H2 O2 = assay: Abundance of H2O2 in treated tobacco leaves; type: in vivo; conditions: FIG. 11
From the text: The abundance of H2 O2 increased in SA- or 3AT-treated tobacco leaves by 50-60% over the control levels observed in water-treated leaves. […] Thus, elevated levels of H2 O2, and in turn, enhanced oxidative stress in vivo, were consistent with inhibition of catalase activity by SA observed in vitro.

| SMILES | Effect on salicylic acid binding activity of SABP [1] | Inhibition of catalase activity in vivo (in words) (catalase) | Inhibition of binding of 14C-labeled SA to SABP/catalase in vitro (in words) (SABP/catalase) | % Inhibition of ascorbate peroxidase (ascorbate peroxidase) [%] | Induction of PR-1 protein synthesis / PR-1 gene induction (in words) (PR1 genes) | Enhanced resistance to TMV infection (reduction in lesion size) (TMV) | other results |
| --- | --- | --- | --- | --- | --- | --- | --- |
| O=C1O[C@H]([C@@H](O)CO)C(O)=C1O [ascorbic acid] | little inhibitory effect | – | – | – | – | – | – |
| O[C@H](CS)[C@H](O)CS (racemic) [dithiothreitol] | affected | – | – | – | – | – | – |
| O=C(O)c1cc(Cl)ccc1O [5-Chlorosalicylic acid] | – | very effectively inhibited catalase activity | very effectively inhibited | 73 ± 5 | potent inducers of PR-1 protein synthesis | enhanced resistance to TMV infection | – |
| O=C(O)c1cc(Cl)cc(Cl)c1O [3,5-Dichlorosalicylic acid] | – | very effectively inhibited catalase activity | very effectively inhibited | 59 ± 5 | potent inducers of PR-1 protein synthesis | enhanced resistance to TMV infection | – |
| O=C(O)c1cc(Cl)nc(Cl)c1 [INA, 2,6-dichloroisonicotinic acid] | – | – | – | – | – | – | Activity (guaiacol peroxidases; POX, 100 μM compound): 2.8 ± 0.4 μmols of oxidized substrate mi; Inhibition (guaiacol peroxidases; POX, 100 μM compound): 0%; Activity (guaiacol peroxidases; POX, 1,000 μM compound): 2.7 ± 0.4 μmols of oxidized substrate mi; Inhibition (guaiacol peroxidases; POX, 1,000 μM compound): 3%; IC50 (ascorbate peroxidase; 750 μM ascorbate, 25 to 500 μM compound, FIG. 17, read-out: Concentration necessary for 50% inhibition (I50) of ascorbate peroxidase): 95 µM; Activity (ascorbate peroxidase; APX, 100 μM compound): 2.25 ± 0.4 μmols of oxidized substrate mi; Inhibition (ascorbate peroxidase; APX, 100 μM compound): 54%; Activity (ascorbate peroxidase; APX, 1,000 μM compound): 0.24 ± 0.2 μmols of oxidized substrate mi; Inhibition (ascorbate peroxidase; APX, 1,000 μM compound): 95%; Activity (horseradish peroxidase; HRP, 100 μM compound): 236 ± 8 μmols of oxidized substrate mi; inhibition at 100 µM (horseradish peroxidase; HRP, 100 μM compound): 1%; Activity (horseradish peroxidase; HRP, 1,000 μM compound): 242 ± 16 μmols of oxidized substrate mi; inhibition at 1000 µM (horseradish peroxidase; HRP, 1,000 μM compound): 0%; Reduction in lesion size (%) (TMV; TMV infection six days after injection, lesions measured seven days post infection, treated vs untreated leaf half): 72% |
| Nc1nc[nH]n1 [3AT, 3-amino-1,2,4-triazole] | – | – | – | – | – | – | Increase in abundance of H2O2 over water-treated leaves (H2 O2): 50-60%; Induction of PR1 gene expression (PR1 genes; tobacco leaves): induced the expression of PR-1 genes |
| OCCS [beta-mercaptoethanol] | affected | – | – | – | – | – | – |
| O=C(O)c1ccc(Cl)cc1O [4-Chlorosalicylic acid] | – | very effectively inhibited catalase activity | very effectively inhibited | 58 ± 4 | potent inducers of PR-1 protein synthesis | enhanced resistance to TMV infection | – |
